Experimental data from patent publication US7615554B2, “Erastin and erastin binding proteins, and uses thereof” (Prolexys Pharmaceuticals, Inc., priority 2005, dated 2009).

What was measured:
[1] = tested on: tumor cells versus normal cells; experiment: Erastin analogs tested for activity and selectivity in tumor cells versus normal cells; assay type: cell-based
Source text: Applicants additionally tested 135 analogs of erastin for activity and selectivity in tumor cells versus normal cells. […] This compound was named erastin B (see FIG. 8). In certain embodiments of the invention, the invention relates to the compound, erastin.
Applicants additionally tested other analogs of erastin for activity and selectivity in tumor cells versus normal cells. […] This compound was named erastin B (see FIG. 8). BJELR cells are BJ-TERT/LT/ST/RAS^V12 cells, and BJEH are BJ-TERT cells.

BJ primary cells = experiment: Sensitization of BJ primary cells by co-treatment (calcein AM viability); assay type: cell-based, human
Source text: (A-C) Western blot of lysates from BJ, BJ-TERT, BJ-TERT/LT/ST, BJ-TERT/LT/ST/RAS^V12, BJ-TERT/LT/RAS^V12 and BJ-TERT/LT/RAS^V12/ST cells with an antibody directed against topoisomerase II (A) or TOPI (B, C). In panel (C), cells were transfected with a siRNA directed against TOPI, lamic A/C or with a control double strand DNA duplex of the same length (TOPI dsDNA). In each case, the blot was probed with an antibody against eIF-4E to identify differences in the amount of protein loaded. The relative amount is quantitated below each band. (D) A TOPI siRNA prevents cell death caused by camptothecin in engineered tumor cells. Cell number was determined after transfection with a siRNA directed against TOPI and treatment with the indicated concentrations of camptothecin. (E) Okadaic acid, an inhibitor of PP2A and other cellular phosphatases, sensitizes primary human cells to camptothecin. BJ primary cells were treated simultaneously with the indicated concentrations of both camptothecin and okadaic acid and the effect on calcein AM viability staining was determined. […] BJ primary cells were treated with the indicated concentrations of okadaic acid and the expression level of TOPI was determined by western blot. The relative amount is quantitated below each band.
The compounds in group (iii) are camptothecin (CPT) and a novel compound from a combinatorial library, which Applicants have named erastin, for eradicator of RAS and ST-expressing cells (FIG. 2). Efficient CPT-induced and erastin-induced cell death requires the presence of both ST and RAS^V12 (FIGS. 3 and 4 and Table 1). Although CPT and erastin have a similar genetic basis of selectivity, they have distinct mechanisms of action. CPT is partially active in cells lacking RB function (via expression of E7), whereas erastin is not, and CPT requires two days to cause death in BJ-TERT/LT/ST/RAS^V12 cells, while erastin is 100% effective within 18 hours (FIGS. 3 and 4). […]

TOP1 = experiment: Western blot for TOP1 expression in BJ primary cells; assay type: cell-based, human
Source text: (A-C) Western blot of lysates from BJ, BJ-TERT, BJ-TERT/LT/ST, BJ-TERT/LT/ST/RAS^V12, BJ-TERT/LT/RAS^V12 and BJ-TERT/LT/RAS^V12/ST cells with an antibody directed against topoisomerase II (A) or TOPI (B, C). In panel (C), cells were transfected with a siRNA directed against TOPI, lamic A/C or with a control double strand DNA duplex of the same length (TOPI dsDNA). In each case, the blot was probed with an antibody against eIF-4E to identify differences in the amount of protein loaded. The relative amount is quantitated below each band. (D) A TOPI siRNA prevents cell death caused by camptothecin in engineered tumor cells. Cell number was determined after transfection with a siRNA directed against TOPI and treatment with the indicated concentrations of camptothecin. (E) Okadaic acid, an inhibitor of PP2A and other cellular phosphatases, sensitizes primary human cells to camptothecin. BJ primary cells were treated simultaneously with the indicated concentrations of both camptothecin and okadaic acid and the effect on calcein AM viability staining was determined. […] BJ primary cells were treated with the indicated concentrations of okadaic acid and the expression level of TOPI was determined by western blot. The relative amount is quantitated below each band. […]

engineered cell lines = experiment: Selectivity across the engineered cell lines (calcein AM IC50 ratios); assay type: cell-based, human; conditions: from selectivity ratio for each subsequent pair of cell lines in a series
Description: To calculate this selectivity score between two cell lines, the IC50 for a compound in one cell line was divided by the IC50 for the same compound in a second cell line. […] The “tumor selectivity score” was calculated for each compound, by dividing the IC50 value for the compound in the parental, primary BJ cells by the IC50 value for the compound in engineered BJ-TERTALT/ST/RAS^V12 cells, containing all four genetic elements required to create tumorigenic cells (Table 1).
Applicants sought to determine the genetic basis of selectivity for each compound. That is, for each compound, they attempted to define the gene or combination of genes responsible for rendering cells sensitive to the compound (Table 1).
The IC50 in primary BJ cells was divided by the IC50 in BJ-TERT/LT/ST/RAS^V12 tumorigenic cells to obtain a tumor selectivity ratio for each compound. The compound selectivity for each genetic element was determined by calculating the selectivity ratio for each subsequent pair of cell lines in a series.

[2] = tested on: BJ-TERT/LT/ST/RAS^V12 cells; experiment: Western blot for active caspase-3; assay type: cell-based, human
Description: BJ-TERT/LT/ST/RAS^V12 cells were seeded prior to the experiment at 5×10^5 cells in 60 mm dishes. The cells were treated with 5 μg/ml erastin (9 μM) for 2, 4, 6, 8 or 10 hours. One dish was maintained for camptothecin treatment (0.4 μlg/ml for 24 h) as a positive control. Cells were lysed after each time point in lysis buffer (50 mM HEPES KOH pH 7.4, […], 2 mM EDTA, 0.5% Triton X-100, 1.5 mM Na3VO4, 50 mM NaF, 10 mM sodium pyrophosphate, 10 mM sodium beta-glycerophosphate and protease inhibitor tablet (Roche)). Protein content was quantified using a Biorad protein assay reagent. Equal amounts of protein were resolved on 16% SDS-polyacrylamide gel. The electrophoresed proteins were transblotted onto a PVDF membrane, blocked with 5% milk and incubated with anti-active caspase-3 polyclonal antibody (BD Pharmingen) at 1:1500 dilution overnight at 4° C. The membrane was then incubated in anti-rabbit-HRP (Santa Cruz Biotechnology) at 1:3000 dilution for 1 hour and developed with an enhanced chemiluminescence mixture (NEN life science, Renaissance). To test for equivalent loading in each lane, blots were stripped, blocked, and probed with an anti-eIF-4E antibody (BD Transduction laboratories) at 1:1000 dilution.

[3] = tested on: BJ-TERT/LT/ST/RAS^V12 cells; experiment: Nuclear morphology assay; assay type: cell-based, human
Source text: Applicants sought to characterize the type of cell death induced by CPT and erastin in tumorigenic BJ-TERT/LT/ST/RAS^V12 cells. […] To determine whether erastin or CPT induces apoptosis in their system, Applicants monitored the nuclear morphology of CPT- and erastin-treated tumorigenic cells using fluorescence microscopy. […] Since nuclear morphological change is required of apoptotic cells, Applicants conclude that cell death induced by erastin is non-apoptotic. […] Additionally, nuclei remained intact in erastin-treated tumor cells (FIG. 9).
200,000 tumorigenic BJ-TERT/LT/ST/RAS^V12 cells were seeded in 2 mL on glass coverslips in each well of a six-well dish, treated with nothing (NT), 9 μM erastin or 1.1 μM camptothecin (CPT) in growth medium for 18 hours while incubating at 37° C. with 5% CO2. Nuclei were stained with 25 μg/mL Hoechst 33342 (Molecular Probes) and viewed using an oil immersion 100× objective on a fluorescence microscope.

How did the “activity and selectivity of erastin analogs/derivatives” value [1] turn out when erastin B was run?
The value was “active and selective, but less potent than erastin”.

What does the source list for `C=C1[C@@H](O)[C@@H]2O[C@]3(CC[C@H](/C=C/[C@@H](C)[C@@H]4CC(C)=C[C@@]5(O[C@H](C[C@@](C)(O)C(=O)O)CC[C@H]5O)O4)O3)CC[C@H]2O[C@@H]1[C@@H](O)C[C@H](C)[C@H]1O[C@@]2(CCCCO2)CC[C@H]1C` [okadaic acid]?
sensitization to camptothecin (BJ primary cells; BJ (or BJ-TERT) cells, simultaneous treatment with camptothecin): renders BJ cells sensitive to camptothecin; sensitization to erastin (BJ primary cells; BJ or BJ-TERT cells): does not render BJ or BJ-TERT cells sensitive to erastin; expression level of TOP1 by western blot (TOP1): stimulates expression of TOP1

Which “Genetic basis of Selectivity” value (engineered cell lines) does the source give for `CC[C@@]1(O)C(=O)OCc2c1cc1n(c2=O)Cc2cc3ccccc3nc2-1` [Camptothecin] here?
The value was “RAS^v12/PP2A/RB”.

And the “cleaved, active caspase 3” value [2]?
The value was “appearance of cleaved, active caspase 3”.

What about the “nuclear morphology by fluorescence microscopy” value ([3]; 9 μM erastin or 1.1 μM camptothecin, 18 hours) of the same compound?
The value was “karyorhexis and margination of chromatin were clearly visible”.

And the fragmented nuclei ([3]; BJ-TERT/LT/ST/RAS^V12 cells)?
The fragmented nuclei was 10-20 % of total nuclei.
